Reference: the NIST ThermoML archive (doi:10.1016/j.fluid.2019.05.020)
Numbers after ± are expanded uncertainties.

Columns and labels:
[1] = Molar enthalpy of transition or fusion; conditions: Crystal; DSC
[2] = for Normal melting temperature: Crystal, DTA

Row | Molar enthalpy of transition or fusion [1] | Normal melting temperature [2] | Triple point temperature ([2]; Crystal 2, DSC) | SMILES
1 | 38.3 ± 2.1 kcal/mol | 66.29 ± 0.65 °C | – | CCCCCCCCCCCCCCCC(=O)OCC(COC(=O)CCCCCCCCCCCCCCC)OC(=O)CCCCCCCCCCCCCCC [1,2,3-propanetriyl tri(hexadecanoate)]
2 | 10.4 ± 1.24 kcal/mol | 37.56 ± 0.91 °C | – | CCCCCCCCCCCCCCO [1-tetradecanol]
3 | 7.06 ± 0.932 kcal/mol | 6.69 ± 0.55 °C | 275.64 ± 4.1 K | CCCCCCCCCCO [decan-1-ol]
4 | 6.25 ± 0.287 kcal/mol | 32.07 ± 0.49 °C | – | CCCCCCCCCC(=O)O [decanoic acid]
5 | 7.53 ± 2.13 kcal/mol | 24.63 ± 0.39 °C | – | CCCCCCCCCCCCO [dodecan-1-ol]
6 | 7.99 ± 0.621 kcal/mol | 45.4 ± 0.65 °C | – | CCCCCCCCCCCC(=O)O [dodecanoic acid]
7 | 11.7 ± 0.645 kcal/mol | 64.02 ± 0.55 °C | – | CCCCCCCCCCCCCCCC(=O)O [hexadecanoic acid]
8 | 13.4 ± 1.12 kcal/mol | 70.48 ± 0.49 °C | – | CCCCCCCCCCCCCCCCCC(=O)O [octadecanoic acid]
9 | 9.92 ± 1.63 kcal/mol | 55.90 ± 0.73 °C | – | CCCCCCCCCCCCCC(=O)O [tetradecanoic acid]
